Test system: C9ORF72 patient iMNs
Assay: induced motor neuron (iMN) survival assay, glutamate treatment
Format: cell-based, human
Settings: excess glutamate (10 μM, 12 hrs); longitudinal tracking, log-rank
Experimental: For the glutamate treatment conditions, 10 μM glutamate was added to the culture medium on day 17 and removed after 12 hrs. Cells were then maintained in N3 medium with neurotrophic factors without RepSox. For the glutamate treatment conditions with glutamate receptor antagonists, cultures were co-treated with 10 μM MK801 and CNQX, and 2 μM Nimodipine during the 12 hr glutamate treatment. The antagonists were maintained for the remainder of the experiment. For the neurotrophic factor withdrawal condition, BDNF, GDNF, and CNTF were removed from the culture medium starting at day 17. Longitudinal tracking was performed by imaging neuronal cultures in a Nikon Biostation CT or Molecular Devices ImageExpress once every 24 hrs starting at day 17. Tracking of neuronal survival was performed using SVcell 2.0 (DRVision Technologies).

Structure (SMILES): Cc1cccc(/C=N/Nc2cc(N3CCOCC3)nc(OCCc3ccccn3)n2)c1 [apilimod]
- survival of C9ORF72 patient iMNs: increased the survival

Reference: US10758545B2, “Methods to treat neurological diseases” (UNIVERSITY OF SOUTHERN CALIFORNIA, priority 2015, dated 2020)
